The target of one assay is CCK receptor. As to the kind of experiment: 125I-CCK-33 receptor binding (pancreas or brain preparation not given). The conditions noted are these: concentration dependent inhibition; tissue (rat pancreas or guinea pig brain) not stated; read-out: IC50, inhibition of specific 125I-CCK-33 binding. The method, then: The biological activity of the compounds of Formula I have been evaluated using an ^125 I-CCK receptor binding assay and in vitro isolated tissue preparations.
(§1) CCK-33 was radiolabeled with ^125 I-Bolton Hunter reagent (2000 Ci/mmole) as described by Sankara et al. (J. Biol. Chem. 254: 9349-9351, 1979). Receptor binding was performed according to Innis and Snyder (Proc. Natl. Acad. Sci. 77: 6917-6921, 1980) with the minor modification of adding the additional protease inhibitors, phenylmethane sulfonyl fluoride and o-phenanthroline. The latter two compounds have no effect on the ^125 I-CCK receptor binding assay.
Male Sprague-Dawley rats (200-350 g) were sacrificed by decapitation. The whole pancreas was dissected free of fat tissue and was homogenized in 20 volumes of ice-cold 50 mM, Tris HCl (pH 7.7 at 25° C.) with a Brinkmann Polytron PT 10. The homogenates were centrifuged at 48,000 g for 10 min. Pellets were resuspended in Tris Buffer, centrifuged as above and resuspended n 200 volumes of binding assay buffer (50 mM Tris HCl, pH 7.7 at 25° C., 5 mM dithiothriethel, 0.1 mM bacitracin, 1.2 mM phenylmethane sulfonyl fluoride and 0.5 mM o-phenanthroline). For the binding assay, 25 μl of buffer (for total binding) or unlabeled CCK-8 sulfate to give a final concentration of lμM (for nonspecific binding) or the compounds of Formula I (for determination inhibition of ^125 I-CCK binding) and 25 μl of ^125 I-CCK-33 (30,000-40,000 cpm) were added to 450 μl of the membrane suspensions in microfuge tubes. All assays were run in duplicate or triplicate. […] The supernatant was aspirated and discarded, pellets were counted with a Beckman gamma 5000. […]
Male Hartley guinea pigs (300-500 g) were sacrificed by decapitation and the brains were removed and placed in ice-cold 50 mM, Tris HCl plus 7.58 g/l Tritma-7.4 (pH 7.4 at 25° C.) Cerebral cortex was dissected and used as a receptor source. […] The supernatant was aspirated and discarded, pellets were counted with a Beckman gamma 5000.

The test system of a further assay is guinea pig ileum. In words: CCK induced contraction, isolated longitudinal muscle of guinea pig ileum. Also on record: species or system guinea pig (male Hartley). The settings on record: at 4.2 μM. The method, then:
Longitudinal muscle strips with attached nerve plexus were prepared as described previously (Brit J. Pharmac. 23: 356-363, 1964; J. Physiol. 194: 13-33, 1969). Male Hartley guinea pigs were decapitated and the ileum was removed (10 cm of the terminal ileum was discarded and the adjacent 20 cm piece was used). A piece (10 cm) of the ileum was stretched on a glass pipette. Using a cotton applicator to stroke tangently away from the mesentery attachment at one end, the longitudinal muscle was separated from the underlying circular muscle. The longitudinal muscle was then tied to a thread and by gently pulling, stripped away from the entire muscle. A piece of approximately 2 cm was suspended in 5 ml organ bath containing Krebs solution and bubbled with 95% O2 and 5% CO2 at 37° C. under 0.5 g tension. CCK-8 was added cumulatively to the baths and EC50 values in the presence and absence of compounds of Formula I determined as described in the gall bladder protocol (above).

The next assay has as its system CCK receptor (pancreas). As to the kind of experiment: CCK Receptor Binding (Pancreas), 125I-CCK-33. The settings on record: added as protease inhibitors; binding assay buffer. Also on record: species or system rat (male Sprague-Dawley). As for the experimental part: as §1
Male Sprague-Dawley rats (200-350 g) were sacrificed by decapitation. The whole pancreas was dissected free of fat tissue and was homogenized in 20 volumes of ice-cold 50 mM, Tris HCl (pH 7.7 at 25° C.) with a Brinkmann Polytron PT 10. The homogenates were centrifuged at 48,000 g for 10 min. Pellets were resuspended in Tris Buffer, centrifuged as above and resuspended n 200 volumes of binding assay buffer (50 mM Tris HCl, pH 7.7 at 25° C., 5 mM dithiothriethel, 0.1 mM bacitracin, 1.2 mM phenylmethane sulfonyl fluoride and 0.5 mM o-phenanthroline). […] The supernatant was aspirated and discarded, pellets were counted with a Beckman gamma 5000.

For another assay, the system named is guinea pig gall bladder. In words: CCK induced contraction, isolated guinea pig gall bladder. Also on record: species or system guinea pig (male Hartley). The conditions noted are these: at 26 μM. As for the experimental part:
Male Hartley guinea pigs (400-600 g) were sacrificed by decapitation. The whole gall bladder was dissected free from adjacent tissues and cut into two equal halves. The gall bladder strips were suspended along the axis of bile duct in 5 ml organ bath under 1 g tension. The organ bath contained a Kreb's bicarbonate solution (NaCl 118 mM, KCl 4.75 mM, CaCl 2.54 mM, KH2 PO4 1.19 mM, Mg SO4 1.2 mM, NaHCO3 25 mM and dextrose 11 mM) maintained at 32° C. and bubbled with 95% O2 and 5% CO2. Isometric contractions were recorded using Statham (60 g; 0.12 mm) strain gauges and a Hewlett-Packard (77588) recorder. The tissues were washed every 10 minutes for 1 hr to obtain equilibrium prior to the beginning of the study. CCK-8 was added cumulatively to the baths and EC50 's determined using egression analysis. After washout (every 10 minutes for 1 hr), the compound of Formula I was added at least 5 minutes before the addition of CCK-8 and the EC50 of CCK-8 in the presence of the compound of Formula I similarly determined.

We go through 6 molecules from US4684645A, “Benzofused lactams as cholecystokinin antagonists” (Merck & Co., Inc., priority 1985, dated 1987).

A word on the IC50: it is the point on the concentration scale where inhibition reaches its midpoint.

For the molecule `CCOC(=O)C(CCc1c[nH]c2ccccc12)NC1CCc2ccccc2N(CC(=O)OC(C)(C)C)C1=O` (stereo not drawn) [1-t-Butoxycarbonylmethyl-3-(1-carboethoxy-3-(3)indolyl-1-propyl)amino homodihydrocarbostyril], the IC50 at CCK receptor came out at 400 nM. Further, in the assay on guinea pig ileum, the “effect on maximal responses to CCK” value is “without affecting maximal responses” and the “shift of CCK dose response to the right” value is recorded as “approximately 2.6 fold”.

Consider `CCOC(=O)C(CCc1ccccc1)NC1CCc2ccccc2N(CC(=O)OC(C)(C)C)C1=O` (stereo not drawn) [1-t-Butoxycarbonylmethyl-3-(1-carboethoxy-3-phenyl-1-propyl]-amino homodihydrocarbostyril], for which the IC50 on CCK receptor came to 2400 nM.

For the molecule `c1cnc2c(c1)ccc1cccnc12` [o-phenanthroline], the “effect on the 125I-CCK receptor binding assay” value in the assay with CCK receptor (pancreas) is “no effect”.

In the case of `CCOC(=O)CN1C(=O)C(NC(CCc2ccccc2)C(=O)OCC)CCc2ccccc21` (racemic) [1-Carboethoxymethyl-3-(1-carboethoxy-3-phenyl-1-propyl)-amino homodihydrocarbostyril], in the assay with guinea pig gall bladder, the “effect on maximal responses to CCK” value is on record as “without reducing maximal responses” and the “shift of CCK dose response” value is reported as “about 10 times”.

Regarding `O=S(=O)(F)Cc1ccccc1` [phenylmethane sulfonyl fluoride], in the assay with CCK receptor (pancreas), the “effect on the 125I-CCK receptor binding assay” value is recorded as “no effect”.

In the case of `COC(=O)CN1C(=O)C(NC(CCc2ccccc2)C(=O)OC)CCc2ccccc21` (racemic) [1-Carbomethoxymethyl-3-(1-carbomethoxy-3-phenyl-1-propyl)aminohomodihydrocarbostyril], at CCK receptor, the IC50 came to 10000 nM.
